Where two headings read alike, the source gives them in different places.
What was measured:
[1] = test system: human renal glomerular microvascular endothelial cells; assay: Actin stress fiber formation (Example 13); conditions: for F-actin staining, agent alone: TNFα 1 ng/ml or S1P 1 μM alone, over the time course; for F-actin staining, danazol alone: 1 μM
[2] = test system: human retinal endothelial cells; assay: Actin stress fiber formation (Example 13); conditions: for F-actin staining, agent alone: TNFα 1 ng/ml or S1P 1 μM alone, over the time course; for F-actin staining, danazol alone: 1 μM
[3] = test system: human retinal endothelial cells; assay: ECIS resistance (Example 14); conditions: for persistence of ECIS increase: danazol 1.0 μM, S1P 1 μM, alone or in combination
Protocol: (§1) Electrical resistance was measured using the electric cell-substrate impedance sensing (ECIS) system (ECISZθ, obtained from Applied Biophysics) with 8-well multiple electrode plates (8W10E). […] The fibronectin solution was removed, and 400 μl of EGM-2 culture medium (Lonza) was added to each well. The plates were connected to the ECISZθ system and were electrically stabilized. The EGM-2 medium was aspirated and replaced with 200 μl of EGM-2 culture medium containing 100,000 cells per well. […] The EGM-2 medium was aspirated and replaced with 400 μl of fresh EGM-2 culture medium per well. […] Concentrated solutions of the test compounds in HBSS were prepared and placed in the incubator to equilibrate. […] ECIS (resistance) was monitored for 90 hours.

[4] = test system: human retinal endothelial cells; assay: Actin stress fiber formation, TNFα (Example 9); conditions: 30 minutes
Protocol: Then, the medium was removed and replaced with 200 μl of IMDM medium supplemented with 0.1% fetal bovine serum (all from Lonza), and the cells were cultured under these growth factor and serum starved conditions for one hour to suppress actin polymerization. […] Immediately following addition of these compounds, TNFα (final concentration of 50 ng/ml) was added. […] All wells were then washed two times with 100 μl PBS. The cells were permeabilized using a 0.1% Triton X-100 in PBS for 5 minutes. All wells were then washed two times with 100 μl PBS, and 50 μl of a 1:40 dilution of rhodamine-phalloidin (Invitrogen) in PBS was added to the cells to stain for F-actin and left on the cells for 20 minutes at room temperature. All wells were then washed two times with 100 μl PBS.

[5] = test system: human retinal endothelial cells; assay: Actin stress fiber formation, VEGF (Example 10); assay type: cell-based; conditions: for change of VEGF stress fiber pattern: 30 minutes before VEGF 25 ng/ml
Protocol: . […] To counter-stain for nuclei, 100 μl of a 3 μM DAPI (4,6-diamidino-2-phenylindole, dilactate (Invitrogen)) solution was added to each well. After 5 minutes, the cells were washed two times with 100 μl PBS.

[6] = test system: human brain endothelial cells; assay: TER of endothelial cell monolayers (Example 6); conditions: 1.0 μM
Protocol: (§2) Assays were also performed in the same manner using passage 8 human brain endothelial cells and passage 8 human umbilical vein endothelial cells.
(§3) An initial TER measurement was taken for each insert using EVOM^2 voltohmmeter connected to an STX100 electrode (both from World Precision Instruments). […] All data are presented as TER measurements/cm^2 of insert with TER of blank inserts subtracted.

[7] = test system: Primary human umbilical vein endothelial cells (HUVECs); assay: HUVEC cell proliferation (Celltiter 96 AQueous One); assay type: cell-based
Protocol: Primary human umbilical vein endothelial cells (HUVECs) and EGM-2 growth medium were obtained from Cambrex (Walkersville, Md.). The cells were passaged in medium supplemented with 2% fetal calf serum (FCS) in tissue culture flasks at 37° C. and 5% CO2. Subculturing was performed using trypsin when 60-80% confluence was obtained as specified by the supplier.
Cryopreserved ampoules of passage 2 HUVECs were thawed and plated in 96 well tissue culture plates at 5,000 cells/cm^2. […] . In short, medium was aspirated from each well and the cells were washed with 200 μl […] (HBSS) from Cambrex warmed to 37° C. 100 μl diluted celltiter solution (15 μl stock+85 μl EGM-2 containing 0.1% FCS) were added to each well and incubated for an additional 4 hours. Optical density was determined by microplate reader using a 530 nm filter after blank subtraction and data presented as OD±standard deviation. The final concentration of ethanol in the wells was less then 0.2% and had no effect on cell proliferation or viability.
All data are presented as representative experiments done in triplicate. […] P<0.05 was considered statistically significant.

[8] = test system: human umbilical vein endothelial cells; assay: TER of endothelial cell monolayers (Example 6); conditions: 1.0 μM
Protocol: as §2, §3

[9] = test system: human retinal endothelial cells; assay: TER of endothelial cell monolayers (Example 6); conditions: 1.0 μM
Protocol: as §2, §3

[10] = test system: Retinal endothelial cells; assay: F-actin (phalloidin) staining of endothelial cells; conditions: barrier-enhancing concentrations
From the text: Retinal endothelial cells stained with rhodamine conjugated phalloidin.

[11] = test system: patients with diabetic macular edema (DME); assay type: in vivo, human
From the text: Included were patients with DME and a central subfield retinal thickness of 300 μm or greater. A total of 34 patients constituted the safety set population. The efficacy evaluable population (n=23) was composed of patients from the safety set who completed 80% or greater of study medications at 4 weeks of treatment. The primary endpoint was change in central subfield retinal thickness from baseline to 12 weeks of treatment, and the secondary endpoints were change from baseline in retinal volume and Early Treatment Diabetic Retinopathy Study (ETDRS) best corrected visual acuity (BCVA) at week 12 of treatment. […] All treatments were administered orally twice a day.

[12] = test system: human renal glomerular microvascular endothelial cells; assay: ECIS resistance (Example 15); conditions: 1 μM
Protocol: Electrical resistance was measured using the electric cell-substrate impedance sensing (ECIS) system (ECISZθ, obtained from Applied Biophysics) with 8-well multiple electrode plates (8W10E). […] The fibronectin solution was removed, and 200 μl of EGM-2 culture medium (Lonza) was added to each well. The plates were connected to the ECISZθ system and were electrically stabilized. The EGM-2 medium was aspirated and replaced with 200 μl of EGM-2 culture medium containing 40,000 passage 6 cells per well. […] The EGM-2 medium was aspirated and replaced with 200 μl of fresh EGM-2 culture medium per well. […] The EGM-2 medium was aspirated and replaced with 200 μl of fresh EGM-2 culture medium without dexamethasone per well. […] Finally, the EGM-2 medium was aspirated and replaced with 200 μl of fresh EGM-2 culture medium without dexamethasone per well. […] Concentrated solutions of the test compounds in HBSS were prepared and placed in the incubator to equilibrate. […] ECIS (resistance) was monitored for 90 hours.

[13] = test system: human renal glomerular microvascular endothelial cells; assay: ECIS resistance (Example 14); conditions: danazol 1 μM alone
Protocol: as §1

[14] = test system: HUVECs; assay: HUVEC tube formation assay; conditions: 18 hours
[15] = test system: endothelial cells; assay: TEER across endothelial cell monolayers on transwell inserts; conditions: barrier-enhancing concentrations, within minutes of exposure
From the text: TEER measured across monolayers of endothelial cells grown on transwell inserts. Higher resistance equals greater barrier integrity.

Compound: CCCCCCCCCCCCC/C=C/[C@@H](O)[C@@H](N)COP(=O)(O)O [S1P, sphingosine-1 phosphate]
- F-actin staining, agent alone [1]: showed actin cortical rings
- F-actin staining, agent alone [2]: showed actin cortical rings
- start of ECIS increase compared to untreated cells, after treatment ([3]; S1P 1 μM alone): ≤ 15 min
- persistence of ECIS increase [3]: about 3 hours

Compound: TNFα
- F-actin staining, agent alone [1]: stress fibers were seen at all times
- F-actin staining, agent alone [2]: stress fibers were seen at all times
- stress fiber development, stimulus alone ([4]; TNFα 50 ng/ml): led to strong stress fiber development with intensely staining focal points

Compound: VEGF
- stress fiber development, stimulus alone ([5]; VEGF 25 ng/ml, 30 minutes): strong stress fiber development

Compound: C#C[C@]1(O)CC[C@H]2[C@@H]3CCC4=Cc5oncc5C[C@]4(C)[C@H]3CC[C@@]21C [Danazol, 17α-pregna-2,4-dien-20-yno[2,3-d]-isoxazol-17β-ol]
- TER ([6]; 0 Hours, per cm^2 of insert, blank subtracted, None 41.4): 32.3
- TER ([6]; 24 Hours, None 115.7): 139.9
- TER ([6]; 48 Hours, None 176.3): 188.4
- TER ([6]; 72 Hours, None 154.0): 149.5
- TER ([6]; 144 Hours, None 151.5): 125.8
- F-actin staining, danazol alone ([1]; 15 minutes): perinuclear staining
- F-actin staining, danazol alone ([1]; 3 hours): diffuse staining throughout the cells with ruffled edges on many of the cells
- F-actin staining, danazol alone ([1]; 24 hours): staining similar to untreated controls
- OD (celltiter proliferation assay) ([7]; 24 hours, 10 μM, nil 0.414±0.06): 0.288±0.037
- OD (celltiter proliferation assay) ([7]; 24 hours, 100 μM, nil 0.414±0.06): 0.162±0.017
- OD (celltiter proliferation assay) ([7]; 48 hours, 1 μM, nil 0.629±0.095): 0.378±0.037
- OD (celltiter proliferation assay) ([7]; 48 hours, 10 μM, nil 0.629±0.095): 0.241±0.012
- OD (celltiter proliferation assay) ([7]; 48 hours, 100 μM, nil 0.629±0.095): 0.19±0.033
- OD (celltiter proliferation assay) ([7]; 72 hours, 0.1 μM, nil 1.113±0.054): 0.798±0.037
- OD (celltiter proliferation assay) ([7]; 72 hours, 1 μM, nil 1.113±0.054): 0.484±0.022
- OD (celltiter proliferation assay) ([7]; 72 hours, 10 μM, nil 1.113±0.054): 0.229±0.016
- OD (celltiter proliferation assay) ([7]; 72 hours, 100 μM, nil 1.113±0.054): 0.156±0.018
- TER ([8]; 0 Hours, per cm^2 of insert, blank subtracted, None 82.3): 70.2
- TER ([8]; 24 Hours, None 217.2): 246.0
- TER ([8]; 48 Hours, None 276.3): 364.1
- TER ([8]; 72 Hours, None 226.8): 270.7
- TER ([8]; 144 Hours, None 227.3): 286.4
- TER ([9]; 0 Hours, per cm^2 of insert, blank subtracted, None 32.3): 21.7
- TER ([9]; 24 Hours, None 96.0): 132.3
- TER ([9]; 48 Hours, None 144.4): 182.3
- TER ([9]; 72 Hours, None 148.0): 217.7
- TER ([9]; 144 Hours, None 219.7): 234.8
- F-actin staining ([10]; within minutes of exposure): f-actin cortical ring formation
- stress fiber formation upon stimulation ([10]; stimulation with TNF-a or thrombin): counteracted the formation of stress fibers
- effect on retinal thickness versus baseline BMI ([11]; 10 mg dose): became less significant with increasing baseline BMI
- effect on retinal thickness versus baseline BMI ([11]; 30 mg danazol dose): became more significant with increasing baseline BMI
- patients with a clinically relevant change in OCT after 12 weeks of treatment ([11]; 30 mg danazol, placebo 2 of 7 patients): 6/7
- Retinal volume compared with placebo ([11]; 15-mg group, P=0.05): decreased
- subjects with a significant decrease in retinal thickness (more than 11%) at 12 weeks ([11]; DME patients, oral 15-mg dose (15 mg twice daily), 6 of 7 patients, placebo 29%): 86%
- subjects with BCVA improvement of at least 1 category (ICD-9-CM vision loss) ([11]; all patients treated with danazol, placebo 14%): 47%
- ocular hypertension ([11]; in vivo): No ocular hypertension was detected
- treatment-related adverse events (number) ([11]; in vivo): Three
- F-actin staining, danazol alone ([2]; 15 minutes): perinuclear staining
- F-actin staining, danazol alone ([2]; 3 hours): diffuse staining throughout the cells with ruffled edges on many of the cells
- F-actin staining, danazol alone ([2]; 24 hours): staining similar to untreated controls
- change of VEGF stress fiber pattern ([5]; 0.1 μM): made the stress fibers less pronounced and some diffuse staining appeared
- change of VEGF stress fiber pattern ([5]; 1.0 μM): showed fewer thick stress fibers, but focal points were seen on contact surfaces
- change of VEGF stress fiber pattern ([5]; 10.0 μM): showed strong stress fiber development with focal points
- F-actin staining pattern ([5]; 10.0 μM, no VEGF): there was no longer any diffuse staining, and stress fiber development and focal points were seen
- persistence of ECIS increase [12]: about 90 hours
- start of ECIS increase compared to untreated cells ([12]; medium without dexamethasone): about 3 hours
- F-actin staining pattern ([4]; 10.0 μM): stress fibers with multiple focal points were detected
- stress fiber development with TNFα ([4]; TNFα 50 ng/ml, danazol 0.1 μM or 10 μM, LY294002 10 μM): decreased the number of cells exhibiting stress fiber development with TNFα
- period of greatest ECIS increase [13]: 60 to 90 h
- effect on tube formation ([14]; 1 μM): no effect
- effect on tube formation ([14]; 10 μM): no effect
- endothelial barrier function (TEER) [15]: increases in endothelial barrier function
- start of ECIS increase compared to untreated cells, after treatment ([3]; 1.0 μM): 90 to 120 min
- persistence of ECIS increase [3]: 5 h
